Assay results reported in ChEMBL document CHEMBL6096732 (J Med Chem, 2025).
Active and inactive are the calls of the source. The rule behind the calls is not given here.

Tests used:
[1] = AUC (0 to infinity) in male Sprague-Dawley rat at 20 mg/kg, po measured after 12 hrs by LC-MS/MS analysis; format: ADME, organism-based; conditions: in vivo
[2] = Toxicity in male C57BL/6 mouse implanted with mouse B16-F10 cells assessed as histopathological changes in kidney at 50 mg/kg, po co-administered with NP-19 as once daily dosage via gavage for 14 days by HandE staining based microscopic analysis; format: organism-based; conditions: in vivo, 336 h, time 14 day
[3] = molecular target: T1, Histone deacetylase 3 (Mus musculus) (UniProt O88895); experiment: In vivo inhibition of HDAC3 in male C57BL/6 mouse model implanted with mouse B16-F10 cells assessed as increase in acetylated histone H3 level at 50 mg/kg, po administered once daily via gavage for 14 days by Western blot analysis; format: functional, organism-based; conditions: time 14.0 day
T1 sequence (whole entry): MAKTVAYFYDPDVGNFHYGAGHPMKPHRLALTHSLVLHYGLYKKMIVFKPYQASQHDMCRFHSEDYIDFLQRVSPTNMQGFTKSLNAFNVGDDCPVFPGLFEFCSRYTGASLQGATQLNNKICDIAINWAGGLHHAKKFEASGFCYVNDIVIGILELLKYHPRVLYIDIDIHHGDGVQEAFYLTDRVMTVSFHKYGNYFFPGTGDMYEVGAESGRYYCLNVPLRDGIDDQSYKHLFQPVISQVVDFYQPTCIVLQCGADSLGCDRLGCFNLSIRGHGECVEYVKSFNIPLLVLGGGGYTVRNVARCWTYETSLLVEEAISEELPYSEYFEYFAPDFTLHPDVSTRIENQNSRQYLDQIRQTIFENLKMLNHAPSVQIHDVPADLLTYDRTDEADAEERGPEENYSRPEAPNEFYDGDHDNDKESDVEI

Histone deacetylase 1 = Histone deacetylase 1 (Homo sapiens, UniProt Q13547); experiment: Inhibition of recombinant HDAC1 (unknown origin) using Boc-Lys(acetyl)-AMC as substrate preincubated for 1 hr followed by substrate addition and measured after 2 hrs by fluorescence based micro plate reader analysis
[4] = MRT (0 to t) in male Sprague-Dawley rat at 2 mg/kg, iv measured after 12 hrs by LC-MS/MS analysis; format: ADME, organism-based; conditions: in vivo
4T1 [5] = experiment: Downregulation of PARP1 expression in mouse 4T1 cells at 2 uM incubated for 24 hrs by Western blot analysis; format: functional, cell-based
4T1 [6] = experiment: Antitumor activity against mouse 4T1 cells implanted in female BALB/c mouse model assessed as decrease in PAPR1 expression in tumor administrated orally as once daily dose via gavage for 14 days by DAPI staining based immunofluorescence analysis; format: functional, cell-based; conditions: route po, time 14.0 day
[7] = Tmax in male Sprague-Dawley rat at 20 mg/kg, po measured after 12 hrs by LC-MS/MS analysis; format: ADME, organism-based; conditions: in vivo
[8] = MRT (0 to t) in male Sprague-Dawley rat at 20 mg/kg, po measured after 12 hrs by LC-MS/MS analysis; format: ADME, organism-based; conditions: in vivo
B16-F10 [9] = experiment: Downregulation of PARP1 expression in mouse B16-F10 cells at 2 uM incubated for 24 hrs by Western blot analysis; format: functional, cell-based
[10] = Cmax in male Sprague-Dawley rat at 20 mg/kg, po measured after 12 hrs by LC-MS/MS analysis; format: ADME, organism-based; conditions: in vivo
4T1 [11] = experiment: Induction of DNA damage in mouse 4T1 cells assessed as increase in gamma-H2AX expression at 2 uM incubated for 24 hrs in presence of olaparib by Western blot analysis; format: functional, cell-based
B16-F10 [12] = experiment: Inhibition of cell migration in mouse B16-F10 cells incubated for 24 to 48 hrs by crystal violet staining based microscopic analysis; format: functional; conditions: dose 5-20 µM, time 24-48 hrs
[13] = Clearance in male Sprague-Dawley rat at 2 mg/kg, iv measured after 12 hrs by LC-MS/MS analysis; format: ADME, organism-based; conditions: in vivo
B16-F10 [14] = experiment: Induction of apoptosis in mouse B16-F10 cells assessed as increase in apoptotic cells at 5 uM incubated for 48 hrs by Annexin V-FITC/PI staining based flow cytometric analysis relative to control; format: functional
B16-F10 [15] = experiment: Effect on acetylated alpha-tubulin expression level in mouse B16-F10 cells at 5 to 20 uM incubated for 24 hrs by Western blot analysis; format: functional, cell-based; conditions: dose 5-20 µM
Histone deacetylase 3 = Histone deacetylase 3 (Homo sapiens, UniProt O15379); conditions: dose 500.0 nM, time 3.0 hrs
B16-F10 [16] = experiment: Induction of apoptosis in mouse B16-F10 cells assessed as increase in apoptotic cells at 10 uM incubated for 48 hrs by Annexin V-FITC/PI staining based flow cytometric analysis relative to control; format: functional
[17] = Half-life in male Sprague-Dawley rat at 2 mg/kg, iv measured after 12 hrs by LC-MS/MS analysis; format: ADME, organism-based; conditions: in vivo
[18] = Half-life in male Sprague-Dawley rat at 20 mg/kg, po measured after 12 hrs by LC-MS/MS analysis; format: ADME, organism-based; conditions: in vivo
B16-F10 [19] = experiment: Induction of DNA damage in mouse B16-F10 cells assessed as increase in gamma-H2AX expression at 2 uM incubated for 24 hrs by Western blot analysis; format: functional, cell-based
B16-F10 [20] = experiment: Induction of apoptosis in mouse B16-F10 cells assessed as increase in apoptotic cells at 20 uM incubated for 48 hrs by Annexin V-FITC/PI staining based flow cytometric analysis relative to control; format: functional
4T1 [21] = experiment: Effect on acetylated alpha-tubulin expression level in mouse 4T1 cells at 5 to 20 uM incubated for 24 hrs by Western blot analysis; format: functional, cell-based; conditions: dose 5-20 µM
B16-F10 [22] = experiment: Antitumor activity against mouse B16-F10 cells implanted in male C57BL/6 mouse model assessed as tumor growth inhibition at 50 mg/kg, po administered once daily via gavage for 14 days relative to control; format: functional; conditions: B16-F10, 336 h, time 14 day, read-out: TGI
[23] = AUMC (0 to infinity) in male Sprague-Dawley rat at 2 mg/kg, iv measured after 12 hrs by LC-MS/MS analysis; format: ADME, organism-based; conditions: in vivo
4T1 [24] = experiment: Antitumor activity against mouse 4T1 cells implanted in female BALB/c mouse model assessed as induction of DNA damage by measuring increase in gamma-H2AX fluorescence intensity in tumor co-administrated orally with olaparib as once daily dose via gavage for 14 days by DAPI staining based immunofluorescence analysis; format: functional, cell-based; conditions: route po, time 14.0 day
B16-F10 [25] = experiment: Cell cycle arrest in mouse B16-F10 cells assessed as decrease in G2/M phase population at 5 to 20 uM incubated for 48 hrs by RNase A/PI staining based flow cytometric analysis; format: functional; conditions: dose 5-20 µM
4T1 [26] = experiment: Antitumor activity against mouse 4T1 cells implanted in female BALB/c mouse model assessed as decrease in PAPR1 expression in tumor co-administrated orally with olaparib as once daily dose via gavage for 14 days by immunohistochemistry analysis; format: functional, cell-based; conditions: route po, time 14.0 day
Mus musculus = experiment: Immunomodulatory activity in male C57BL/6 mouse model implanted with mouse B16-F10 cells assessed as increase in CD3+ CD8+ T cells in tumor at 50 mg/kg, po co-administered with NP-19 as once daily dosage via gavage for 14 days by flow cytometric analysis (reference value: 3.2 %); format: functional; conditions: time 14 day
[27] = Apparent volume of distribution in male Sprague-Dawley rat at 2 mg/kg, iv measured after 12 hrs by LC-MS/MS analysis; format: ADME, organism-based; conditions: in vivo, read-out: Vz

Histone deacetylase 1, sequence (Q13547 whole entry): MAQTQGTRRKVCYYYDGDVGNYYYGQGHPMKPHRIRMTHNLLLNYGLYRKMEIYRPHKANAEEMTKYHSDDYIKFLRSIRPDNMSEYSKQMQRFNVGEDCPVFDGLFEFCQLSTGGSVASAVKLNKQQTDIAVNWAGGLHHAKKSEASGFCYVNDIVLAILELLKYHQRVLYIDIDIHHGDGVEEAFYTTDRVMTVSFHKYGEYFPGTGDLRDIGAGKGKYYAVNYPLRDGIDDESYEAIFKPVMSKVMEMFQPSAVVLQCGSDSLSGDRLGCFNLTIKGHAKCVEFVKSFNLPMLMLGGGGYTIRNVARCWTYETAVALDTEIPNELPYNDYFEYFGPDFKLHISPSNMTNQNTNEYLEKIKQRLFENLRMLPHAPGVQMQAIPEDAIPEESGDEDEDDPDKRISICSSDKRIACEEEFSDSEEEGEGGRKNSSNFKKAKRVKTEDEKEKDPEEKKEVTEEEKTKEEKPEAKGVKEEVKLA
Histone deacetylase 3, sequence (O15379 whole entry): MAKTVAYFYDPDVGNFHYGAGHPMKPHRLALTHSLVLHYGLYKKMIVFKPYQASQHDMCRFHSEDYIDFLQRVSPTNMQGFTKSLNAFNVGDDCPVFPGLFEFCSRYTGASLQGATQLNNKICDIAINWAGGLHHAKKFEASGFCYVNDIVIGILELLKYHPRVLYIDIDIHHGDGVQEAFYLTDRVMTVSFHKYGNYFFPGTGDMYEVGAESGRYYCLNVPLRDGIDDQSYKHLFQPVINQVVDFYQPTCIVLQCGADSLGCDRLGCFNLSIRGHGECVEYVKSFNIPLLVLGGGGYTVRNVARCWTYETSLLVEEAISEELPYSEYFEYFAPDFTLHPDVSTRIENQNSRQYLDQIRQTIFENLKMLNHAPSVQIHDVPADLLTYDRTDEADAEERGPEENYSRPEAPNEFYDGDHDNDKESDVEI

AUC(0-inf) [1]: 8170 ng·h/mL
inhibition [3]: Active
IC50 (Histone deacetylase 1): 6.8 µM
MRT last at 12 h [4]: 44.3 min
Tmax [7]: 30 min
MRT last at 12 h [8]: 266 min
Cmax [10]: 1390 ng/mL
clearance [13]: 39.6 mL/min/kg
inhibition (Histone deacetylase 3): 96%
half-life [17]: 37.8 min
half-life [18]: 122 min
AUMC [23]: 630.022 hr.hr.ug/L
Vd [27]: 2.17 L/kg
SMILES: CCCNNC(=O)c1ccc(Cn2c3ccccc3c3c(-c4ccccn4)nc4ccccc4c32)cc1
Activity [2]: Non-toxic
Activity (4T1 [5]): Active
Activity (4T1 [6]): Active; Comparable To The Effect Of Olaparib
Activity (B16-F10 [9]): Active
Activity (4T1 [11]): Active
inhibition (B16-F10 [12]): Dose-dependent-effect
Activity (B16-F10 [14]): 25%
Activity (B16-F10 [15]): inactive
Activity (B16-F10 [16]): 44.7%
Activity (B16-F10 [19]): Active
Activity (B16-F10 [20]): 60.7%
Activity (4T1 [21]): inactive
inhibition in vivo at 50 mg/kg (B16-F10 [22]): 67%
Activity (4T1 [24]): Active
Activity (B16-F10 [25]): Active
Activity (4T1 [26]): Active
Activity (Mus musculus): 32%
